Test results published in patent US11046696B2, “Fused pyrimidine compound or salt thereof” (TAIHO PHARMACEUTICAL CO., LTD., priority 2016, dated 2021).

test: Evaluation of stability in liver microsome; details: mouse liver microsome, 1 μM, 37° C. for 30 minutes

Remaining (%) | SMILES
67 | COCc1ccc(NC(=O)c2cn(C3(C4CC4)CC3)c3ncnc(N)c23)cc1 [Example 49, 7-{[1,1-bi(cyclopropane)]-1-yl}-4-amino-N-(4-(methoxymethyl)phenyl)-7H-pyrrolo[2,3-d]pyrimidine-5-carboxamide]
51 | COCc1ccc(NC(=O)c2c(C#Cc3cncs3)n(C3(C)CC3)c3ncnc(N)c23)cc1 [Example 193, 4-amino-N-[4-(methoxymethyl)phenyl]-7-(1-methylcyclopropyl)-6-(thiazol-5-ylethynyl)-7H-pyrrolo[2,3-d]pyrimidine-5-carboxamide]
53 | COCc1ccc(NC(=O)c2c(C#Cc3cncnc3)n(C3(C)CC3)c3ncnc(N)c23)cc1 [Example 196, 4-amino-N-(4-(methoxymethyl)phenyl)-7-(1-methylcyclopropyl)-6-(pyrimidin-5-ylethynyl)-7H-pyrrolo[2,3-d]pyrimidine-5-carboxamide]
0 | Nc1ncnc2c1c(C(=O)Nc1ccc(Oc3ccccc3)cc1)cn2C1CCCC1 [Compound 2 of Comparative Examples, 4-amino-7-cyclopentyl-N-(4-phenoxyphenyl)-7H-pyrrolo[2,3-d]pyrimidine-5-carboxamide, reference compound]
70 | COCc1ccc(NC(=O)c2c(OC[C@@H]3CCCO3)n(C3(C)CC3)c3ncnc(N)c23)cc1 [Example 97, (S)-4-amino-N-(4-(methoxymethyl)phenyl)-7-(1-methylcyclopropyl)-6-((tetrahydrofuran-2-yl)methoxy)-7H-pyrrolo[2,3-d]pyrimidine-5-carboxamide]
54 | COCc1ccc(NC(=O)c2c(C#Cc3ccn[nH]3)n(C3(C)CC3)c3ncnc(N)c23)cc1 [Example 129, 6-((1H-pyrazol-5-yl)ethynyl)-4-amino-N-(4-(methoxymethyl)phenyl)-7-(1-methylcyclopropyl)-7H-pyrrolo[2,3-d]pyrimidine-5-carboxamide]
85 | COCc1ccc(NC(=O)c2c(C#Cc3ccc4c(c3)NCCO4)n(C3(C)CC3)c3ncnc(N)c23)cc1 [Example 158, 4-amino-6-((3,4-dihydro-2H-benzo[b][1,4]oxazin-6-yl)ethynyl)-N-(4-(methoxymethyl)phenyl)-7-(1-methylcyclopropyl)-7H-pyrrolo[2,3-d]pyrimidine-5-carboxamide]
60 | COCc1ccc(NC(=O)c2c(C#Cc3cccnc3)n(C3(C)CC3)c3ncnc(N)c23)cc1 [Example 94, 4-amino-N-[4-(methoxymethyl)phenyl]-7-(1-methylcyclopropyl)-6-(pyridin-3-ylethynyl)-7H-pyrrolo[2,3-d]pyrimidine-5-carboxamide]
58 | COCc1ccc(NC(=O)c2cn(C3(C)CC3)c3ncnc(N)c23)cc1F [Example 48, 4-amino-N-(3-fluoro-4-(methoxymethyl)phenyl)-7-(1-methylcyclopropyl)-7H-pyrrolo[2,3-d]pyrimidine-5-carboxamide]
57 | COCc1ccc(NC(=O)c2c(C#CCC3CCOCC3)n(C3(C)CC3)c3ncnc(N)c23)cc1 [Example 152, 4-amino-N-(4-(methoxymethyl)phenyl)-7-(1-methylcyclopropyl)-6-(3-(tetrahydro-2H-pyran-4-yl)prop-1-yn-1-yl)-7H-pyrrolo[2,3-d]pyrimidine-5-carboxamide]
53 | COCc1ccc(NC(=O)c2c(C#Cc3cncn3C)n(C3(C)CC3)c3ncnc(N)c23)cc1 [Example 93, 4-amino-N-(4-(methoxymethyl)phenyl)-6-((1-methyl-1H-imidazol-5-yl)ethynyl)-7-(1-methylcyclopropyl)-7H-pyrrolo[2,3-d]pyrimidine-5-carboxamide]
67 | COCc1ccc(NC(=O)c2c(-c3cncnc3)n(C3(C)CC3)c3ncnc(N)c23)cc1 [Example 194, 4-amino-N-(4-(methoxymethyl)phenyl)-7-(1-methylcyclopropyl)-6-(pyrimidin-5-yl)-7H-pyrrolo[2,3-d]pyrimidine-5-carboxamide]
72 | COCc1ccc(NC(=O)c2c(C#CC3(O)CCOC3)n(C3(C)CC3)c3ncnc(N)c23)cc1 (stereo not shown) [Example 177, 4-amino-6-((3-hydroxytetrahydrofuran-3-yl)ethynyl)-N-(4-(methoxymethyl)phenyl)-7-(1-methylcyclopropyl)-7H-pyrrolo[2,3-d]pyrimidine-5-carboxamide]
70 | CCOc1c(C(=O)Nc2ccc(COC)cc2)c2c(N)ncnc2n1C1(C)CC1 [Example 127, 4-amino-6-ethoxy-N-(4-(methoxymethyl)phenyl)-7-(1-methylcyclopropyl)-7H-pyrrolo[2,3-d]pyrimidine-5-carboxamide]
76 | COCc1ccc(NC(=O)c2c(C#Cc3ccccc3)n(C3(C)CC3)c3ncnc(N)c23)cc1 [Example 162, 4-amino-N-(4-(methoxymethyl)phenyl)-7-(1-methylcyclopropyl)-6-(phenylethynyl)-7H-pyrrolo[2,3-d]pyrimidine-5-carboxamide]
64 | COCc1ccc(NC(=O)c2cn(C(C)(C)C)c3ncnc(N)c23)cc1 [Example 2, 4-amino-7-(tert-butyl)-N-(4-(methoxymethyl)phenyl)-7H-pyrrolo[2,3-d]pyrimidine-5-carboxamide]
73 | CCn1cc(C#Cc2c(C(=O)Nc3ccc(COC)cc3)c3c(N)ncnc3n2C2(C)CC2)cn1 [Example 118, 4-amino-6-((1-ethyl-1H-pyrazol-4-yl)ethynyl)-N-(4-(methoxymethyl)phenyl)-7-(1-methylcyclopropyl)-7H-pyrrolo[2,3-d]pyrimidine-5-carboxamide]
71 | COCc1ccc(NC(=O)c2c(OC[C@@H](C)OC)n(C3(C)CC3)c3ncnc(N)c23)cc1 [Example 96, (R)-4-amino-N-(4-(methoxymethyl)phenyl)-6-(2-methoxypropoxy)-7-(1-methylcyclopropyl)-7H-pyrrolo[2,3-d]pyrimidine-5-carboxamide]
61 | COCc1ccc(NC(=O)c2c(C#Cc3cnn(C)c3C)n(C3(C)CC3)c3ncnc(N)c23)cc1 [Example 182, 4-amino-6-((1,5-dimethyl-1H-pyrazol-4-yl)ethynyl)-N-(4-(methoxymethyl)phenyl)-7-(1-methylcyclopropyl)-7H-pyrrolo[2,3-d]pyrimidine-5-carboxamide]
57 | COCc1ccc(NC(=O)c2cn(C(C)(C)C)c3ncnc(N)c23)c(OC)c1 [Example 33, 4-amino-7-(tert-butyl)-N-(2-methoxy-4-(methoxymethyl)phenyl)-7H-pyrrolo[2,3-d]pyrimidine-5-carboxamide]
60 | COCc1ccc(NC(=O)c2cn(C(C)(C)CF)c3ncnc(N)c23)cc1 [Example 26, 4-amino-7-(1-fluoro-2-methylpropan-2-yl)-N-(4-(methoxymethyl)phenyl)-7H-pyrrolo[2,3-d]pyrimidine-5-carboxamide]
78 | COCc1ccc(NC(=O)c2c(OCCN3CCCC3=O)n(C3(C)CC3)c3ncnc(N)c23)cc1 [Example 136, 4-amino-N-(4-(methoxymethyl)phenyl)-7-(1-methylcyclopropyl)-6-(2-(2-oxopyrrolidin-1-yl)ethoxy)-7H-pyrrolo[2,3-d]pyrimidine-5-carboxamide]
